From ChEMBL document CHEMBL4382269, “Discovery of Potent, Efficient, and Selective Inhibitors of Phosphoinositide 3-Kinase δ through a Deconstruction and Regrowth Approach” (J Med Chem, 2018)

Tests used:
[1] = biological target: Phosphatidylinositol 4,5-bisphosphate 3-kinase catalytic subunit alpha isoform (Homo sapiens, UniProt P42336); assay: Inhibition of PI3Kalpha (unknown origin) using PIP2 as substrate preincubated for 15 mins followed by substrate addition measured after 60 mins by HTRF method
Chain of Phosphatidylinositol 4,5-bisphosphate 3-kinase catalytic subunit alpha isoform (P42336 whole entry, canonical isoform): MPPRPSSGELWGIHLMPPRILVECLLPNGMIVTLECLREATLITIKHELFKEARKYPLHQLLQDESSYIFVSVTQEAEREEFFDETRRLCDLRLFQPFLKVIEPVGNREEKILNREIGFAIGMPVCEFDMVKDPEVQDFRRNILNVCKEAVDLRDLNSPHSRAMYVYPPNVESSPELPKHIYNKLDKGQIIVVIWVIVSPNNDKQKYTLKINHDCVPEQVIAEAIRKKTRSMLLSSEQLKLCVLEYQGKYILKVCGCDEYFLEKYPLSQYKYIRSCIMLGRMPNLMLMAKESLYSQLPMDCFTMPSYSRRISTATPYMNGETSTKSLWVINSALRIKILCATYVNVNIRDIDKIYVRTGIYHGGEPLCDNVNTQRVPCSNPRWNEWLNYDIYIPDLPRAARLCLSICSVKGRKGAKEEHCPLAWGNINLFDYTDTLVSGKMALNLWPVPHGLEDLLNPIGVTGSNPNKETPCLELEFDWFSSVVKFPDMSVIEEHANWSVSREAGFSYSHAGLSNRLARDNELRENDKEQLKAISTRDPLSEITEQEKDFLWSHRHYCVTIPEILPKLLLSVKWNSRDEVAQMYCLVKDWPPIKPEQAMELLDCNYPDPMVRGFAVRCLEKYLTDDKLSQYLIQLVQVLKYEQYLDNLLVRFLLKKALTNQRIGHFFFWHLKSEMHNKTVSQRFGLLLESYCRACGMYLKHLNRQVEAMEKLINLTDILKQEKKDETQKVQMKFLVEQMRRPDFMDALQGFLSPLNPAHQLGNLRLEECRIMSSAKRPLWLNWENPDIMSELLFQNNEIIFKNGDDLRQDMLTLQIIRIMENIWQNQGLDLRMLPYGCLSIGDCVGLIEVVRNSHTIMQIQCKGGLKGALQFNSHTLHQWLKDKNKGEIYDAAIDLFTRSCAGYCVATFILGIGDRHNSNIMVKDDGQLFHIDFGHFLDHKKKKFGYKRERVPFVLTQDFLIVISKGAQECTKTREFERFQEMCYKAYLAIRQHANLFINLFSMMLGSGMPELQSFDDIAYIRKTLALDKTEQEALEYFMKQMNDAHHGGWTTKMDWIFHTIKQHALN

[2] = biological target: Phosphatidylinositol 4,5-bisphosphate 3-kinase catalytic subunit beta isoform (Homo sapiens, UniProt P42338); assay: Inhibition of PI3Kbeta (unknown origin) using PIP2 as substrate preincubated for 15 mins followed by substrate addition measured after 60 mins by HTRF method
Chain of Phosphatidylinositol 4,5-bisphosphate 3-kinase catalytic subunit beta isoform (P42338 whole entry, canonical isoform): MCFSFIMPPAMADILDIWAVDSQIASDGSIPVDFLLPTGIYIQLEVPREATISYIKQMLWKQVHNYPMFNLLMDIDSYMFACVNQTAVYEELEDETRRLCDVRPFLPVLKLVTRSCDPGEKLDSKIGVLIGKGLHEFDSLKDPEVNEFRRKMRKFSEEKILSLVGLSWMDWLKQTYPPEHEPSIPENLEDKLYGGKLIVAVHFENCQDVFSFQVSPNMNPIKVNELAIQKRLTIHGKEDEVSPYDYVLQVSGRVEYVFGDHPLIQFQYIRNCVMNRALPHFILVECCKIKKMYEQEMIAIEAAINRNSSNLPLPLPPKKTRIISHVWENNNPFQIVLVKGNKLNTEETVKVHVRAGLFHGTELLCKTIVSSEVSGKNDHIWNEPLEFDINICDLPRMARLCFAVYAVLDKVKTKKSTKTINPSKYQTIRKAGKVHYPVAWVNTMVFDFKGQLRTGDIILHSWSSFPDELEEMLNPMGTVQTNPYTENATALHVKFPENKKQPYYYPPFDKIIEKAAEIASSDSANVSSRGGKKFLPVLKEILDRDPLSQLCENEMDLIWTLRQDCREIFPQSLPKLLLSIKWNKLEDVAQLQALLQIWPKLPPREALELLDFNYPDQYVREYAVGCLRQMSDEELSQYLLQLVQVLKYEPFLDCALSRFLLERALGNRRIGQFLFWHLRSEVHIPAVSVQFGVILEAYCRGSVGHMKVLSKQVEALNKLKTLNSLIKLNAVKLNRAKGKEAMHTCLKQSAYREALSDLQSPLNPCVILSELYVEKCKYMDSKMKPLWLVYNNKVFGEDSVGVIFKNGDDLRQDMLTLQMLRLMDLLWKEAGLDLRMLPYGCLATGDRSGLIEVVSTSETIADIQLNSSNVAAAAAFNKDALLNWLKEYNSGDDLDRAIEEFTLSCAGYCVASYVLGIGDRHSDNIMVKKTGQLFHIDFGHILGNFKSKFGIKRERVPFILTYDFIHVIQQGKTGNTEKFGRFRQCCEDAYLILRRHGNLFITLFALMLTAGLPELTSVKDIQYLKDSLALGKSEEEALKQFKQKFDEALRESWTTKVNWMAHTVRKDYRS

[3] = biological target: Phosphatidylinositol 4,5-bisphosphate 3-kinase catalytic subunit gamma isoform (Homo sapiens, UniProt P48736); assay: Inhibition of PI3Kgamma (unknown origin) using PIP2 as substrate preincubated for 15 mins followed by substrate addition measured after 60 mins by HTRF method
Chain of Phosphatidylinositol 4,5-bisphosphate 3-kinase catalytic subunit gamma isoform (P48736 whole entry, canonical isoform): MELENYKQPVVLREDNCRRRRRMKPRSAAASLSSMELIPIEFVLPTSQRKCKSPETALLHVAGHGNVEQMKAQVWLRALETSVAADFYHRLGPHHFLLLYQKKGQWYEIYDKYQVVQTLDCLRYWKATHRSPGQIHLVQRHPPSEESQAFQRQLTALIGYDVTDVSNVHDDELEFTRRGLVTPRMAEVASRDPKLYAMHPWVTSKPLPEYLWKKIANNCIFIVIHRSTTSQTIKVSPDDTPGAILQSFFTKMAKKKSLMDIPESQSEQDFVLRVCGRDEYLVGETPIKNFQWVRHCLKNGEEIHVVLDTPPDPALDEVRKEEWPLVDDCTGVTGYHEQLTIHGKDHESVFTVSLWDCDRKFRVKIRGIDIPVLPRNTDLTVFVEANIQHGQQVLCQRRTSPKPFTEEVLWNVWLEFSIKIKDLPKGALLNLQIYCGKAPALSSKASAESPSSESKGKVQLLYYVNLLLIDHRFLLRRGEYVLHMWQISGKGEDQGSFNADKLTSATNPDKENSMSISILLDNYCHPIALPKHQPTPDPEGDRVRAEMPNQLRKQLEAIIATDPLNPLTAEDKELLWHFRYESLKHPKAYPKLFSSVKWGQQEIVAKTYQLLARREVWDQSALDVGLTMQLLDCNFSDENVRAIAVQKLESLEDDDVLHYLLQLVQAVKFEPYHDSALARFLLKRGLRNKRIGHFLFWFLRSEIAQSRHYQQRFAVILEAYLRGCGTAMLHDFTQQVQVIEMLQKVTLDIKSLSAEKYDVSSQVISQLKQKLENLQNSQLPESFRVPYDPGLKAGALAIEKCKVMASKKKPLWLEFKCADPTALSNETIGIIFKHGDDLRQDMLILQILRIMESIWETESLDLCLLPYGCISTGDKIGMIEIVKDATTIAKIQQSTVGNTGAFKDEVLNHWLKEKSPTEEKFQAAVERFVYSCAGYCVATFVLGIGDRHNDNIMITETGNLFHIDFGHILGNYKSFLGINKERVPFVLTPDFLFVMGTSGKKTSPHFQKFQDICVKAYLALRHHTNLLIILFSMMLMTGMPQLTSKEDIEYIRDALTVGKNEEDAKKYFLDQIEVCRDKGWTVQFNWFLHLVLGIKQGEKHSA

[4] = biological target: T1, Phosphatidylinositol 4,5-bisphosphate 3-kinase catalytic subunit delta isoform (Homo sapiens, UniProt O00329); assay: Inhibition of PI3Kdelta (unknown origin) using PIP2 as substrate preincubated for 15 mins followed by substrate addition measured after 60 mins by HTRF method
T1 sequence (O00329 whole entry): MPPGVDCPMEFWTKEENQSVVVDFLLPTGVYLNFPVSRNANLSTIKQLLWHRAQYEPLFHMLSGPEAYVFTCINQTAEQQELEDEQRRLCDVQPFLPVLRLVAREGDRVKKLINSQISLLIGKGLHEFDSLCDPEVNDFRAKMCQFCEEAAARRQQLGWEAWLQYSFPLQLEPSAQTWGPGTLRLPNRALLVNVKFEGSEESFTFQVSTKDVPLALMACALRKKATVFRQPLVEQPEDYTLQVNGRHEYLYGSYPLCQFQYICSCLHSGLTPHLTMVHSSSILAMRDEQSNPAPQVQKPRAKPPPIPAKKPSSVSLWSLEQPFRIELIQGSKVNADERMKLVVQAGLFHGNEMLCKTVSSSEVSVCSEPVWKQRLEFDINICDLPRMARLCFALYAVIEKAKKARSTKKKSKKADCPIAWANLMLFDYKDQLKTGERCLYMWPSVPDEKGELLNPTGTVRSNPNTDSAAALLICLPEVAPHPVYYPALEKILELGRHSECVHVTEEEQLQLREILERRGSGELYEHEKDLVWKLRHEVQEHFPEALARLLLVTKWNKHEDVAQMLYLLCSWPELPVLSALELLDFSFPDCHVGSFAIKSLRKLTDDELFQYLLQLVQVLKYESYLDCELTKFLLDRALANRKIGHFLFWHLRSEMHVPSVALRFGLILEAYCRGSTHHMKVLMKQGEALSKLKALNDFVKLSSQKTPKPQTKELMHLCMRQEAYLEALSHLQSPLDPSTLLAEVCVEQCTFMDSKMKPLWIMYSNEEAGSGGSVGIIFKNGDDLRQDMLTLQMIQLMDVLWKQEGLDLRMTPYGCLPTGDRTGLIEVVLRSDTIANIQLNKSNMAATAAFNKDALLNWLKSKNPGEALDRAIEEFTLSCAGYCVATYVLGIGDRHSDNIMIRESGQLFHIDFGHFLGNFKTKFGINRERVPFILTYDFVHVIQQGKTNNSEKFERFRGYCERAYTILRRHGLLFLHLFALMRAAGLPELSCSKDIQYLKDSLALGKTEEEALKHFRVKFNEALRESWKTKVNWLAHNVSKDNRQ

[5] = biological target: Epidermal growth factor receptor (Homo sapiens, UniProt P00533); assay: Inhibition of EGFR (unknown origin)
[6] = biological target: Tyrosine-protein kinase ITK/TSK (Homo sapiens, UniProt Q08881); assay: Inhibition of ITK (unknown origin)
[7] = biological target: Tyrosine-protein kinase BTK (Homo sapiens, UniProt Q06187); assay: Inhibition of BTK (unknown origin)
Chain of Tyrosine-protein kinase BTK (Q06187 whole entry): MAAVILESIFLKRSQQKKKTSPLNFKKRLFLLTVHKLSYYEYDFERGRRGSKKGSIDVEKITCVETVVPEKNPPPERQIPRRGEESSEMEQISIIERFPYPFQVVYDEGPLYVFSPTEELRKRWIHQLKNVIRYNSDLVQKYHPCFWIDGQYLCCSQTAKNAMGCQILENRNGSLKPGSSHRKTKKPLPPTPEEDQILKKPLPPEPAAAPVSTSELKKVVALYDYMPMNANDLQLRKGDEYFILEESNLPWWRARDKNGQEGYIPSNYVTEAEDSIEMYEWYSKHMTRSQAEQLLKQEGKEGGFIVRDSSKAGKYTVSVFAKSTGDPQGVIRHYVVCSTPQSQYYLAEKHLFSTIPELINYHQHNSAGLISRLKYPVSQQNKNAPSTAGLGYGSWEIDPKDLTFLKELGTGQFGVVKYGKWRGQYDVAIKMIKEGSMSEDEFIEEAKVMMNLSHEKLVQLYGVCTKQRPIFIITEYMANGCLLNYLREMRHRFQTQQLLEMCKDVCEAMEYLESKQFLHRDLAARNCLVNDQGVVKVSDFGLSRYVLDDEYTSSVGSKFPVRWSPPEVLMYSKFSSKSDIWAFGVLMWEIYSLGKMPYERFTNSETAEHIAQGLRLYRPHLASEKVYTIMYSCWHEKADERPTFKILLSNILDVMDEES

[8] = biological target: Rho-associated protein kinase 1 (Homo sapiens, UniProt Q13464); assay: Inhibition of ROCK1 (unknown origin)
[9] = biological target: Mitogen-activated protein kinase 14 (Homo sapiens, UniProt Q16539); assay: Inhibition of p38alpha (unknown origin)
[10] = biological target: Aurora kinase B (Homo sapiens, UniProt Q96GD4); assay: Inhibition of Aurora B (unknown origin)
[11] = biological target: Inhibitor of nuclear factor kappa-B kinase subunit beta (Homo sapiens, UniProt O14920); assay: Inhibition of IKK2 (unknown origin)
[12] = biological target: Tyrosine-protein kinase JAK2 (Homo sapiens, UniProt O60674); assay: Inhibition of JAK2 (unknown origin)
[13] = biological target: Tyrosine-protein kinase SYK (Homo sapiens, UniProt P43405); assay: Inhibition of SYK (unknown origin)
[14] = biological target: Tyrosine-protein kinase JAK3 (Homo sapiens, UniProt P52333); assay: Inhibition of JAK3 (unknown origin)
[15] = biological target: Mitogen-activated protein kinase 10 (Homo sapiens, UniProt P53779); assay: Inhibition of JNK3 (unknown origin)
[16] = biological target: Glycogen synthase kinase-3 beta (Homo sapiens, UniProt P49841); assay: Inhibition of GSK3B (unknown origin)
Chain of Glycogen synthase kinase-3 beta (P49841 whole entry): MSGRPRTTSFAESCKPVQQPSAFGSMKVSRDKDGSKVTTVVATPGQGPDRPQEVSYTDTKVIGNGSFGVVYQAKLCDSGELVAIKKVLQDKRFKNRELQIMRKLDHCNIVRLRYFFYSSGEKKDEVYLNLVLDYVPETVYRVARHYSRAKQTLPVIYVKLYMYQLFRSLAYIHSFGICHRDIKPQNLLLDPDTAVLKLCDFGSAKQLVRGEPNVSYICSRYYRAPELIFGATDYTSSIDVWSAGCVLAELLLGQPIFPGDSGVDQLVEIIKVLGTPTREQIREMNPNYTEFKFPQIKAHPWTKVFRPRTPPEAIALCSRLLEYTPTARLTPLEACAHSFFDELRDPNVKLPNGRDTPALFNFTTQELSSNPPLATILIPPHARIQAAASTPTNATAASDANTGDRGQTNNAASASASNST

[17] = biological target: Tyrosine-protein kinase Lck (Homo sapiens, UniProt P06239); assay: Inhibition of LCK (unknown origin)
Chain of Tyrosine-protein kinase Lck (P06239 whole entry): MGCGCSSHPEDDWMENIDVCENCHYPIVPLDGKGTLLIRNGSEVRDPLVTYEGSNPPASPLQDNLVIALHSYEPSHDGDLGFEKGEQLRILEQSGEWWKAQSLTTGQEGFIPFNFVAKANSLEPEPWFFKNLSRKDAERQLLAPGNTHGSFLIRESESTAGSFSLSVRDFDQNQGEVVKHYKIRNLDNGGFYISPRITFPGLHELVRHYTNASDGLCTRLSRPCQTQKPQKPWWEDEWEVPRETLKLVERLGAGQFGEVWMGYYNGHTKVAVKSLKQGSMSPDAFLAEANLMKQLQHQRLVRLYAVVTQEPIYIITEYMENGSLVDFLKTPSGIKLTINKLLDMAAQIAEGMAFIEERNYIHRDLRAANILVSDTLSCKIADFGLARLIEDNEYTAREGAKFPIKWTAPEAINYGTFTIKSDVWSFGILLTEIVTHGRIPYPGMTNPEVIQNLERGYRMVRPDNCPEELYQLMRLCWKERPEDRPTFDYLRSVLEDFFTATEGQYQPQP

[18] = biological target: Inhibitor of nuclear factor kappa-B kinase subunit alpha (Homo sapiens, UniProt O15111); assay: Inhibition of IKK1 (unknown origin)
[19] = biological target: Mitogen-activated protein kinase kinase kinase 5 (Homo sapiens, UniProt Q99683); assay: Inhibition of ASK1 (unknown origin)
[20] = biological target: Leucine-rich repeat serine/threonine-protein kinase 2 (Homo sapiens, UniProt Q5S007); assay: Inhibition of LRRK2 (unknown origin)

SMILES | IC50 [1] [µM] | IC50 [2] [µM] | IC50 [3] [µM] | IC50 [4] [µM] | other results
c1cc(-c2nnc(CN3CCOCC3)o2)c2cn[nH]c2c1 | > 50.1 | > 50.1 | 25.1 | 158 | –
O=S(=O)(Nc1cc(C2=CCOCC2)cnc1Cl)c1ccccc1 | 0.501 | 0.126 | 0.501 | 0.01 | –
c1cc(-c2ccc3cn[nH]c3c2)c2cc[nH]c2c1 | > 158 | 25.1 | > 158 | 7.94 | –

More lines, main results first:

IC50 [1] [µM] | IC50 [2] [µM] | IC50 [3] [µM] | IC50 [4] [µM] | SMILES | other results
6.31 | 0.794 | 3.98 | 0.251 | CS(=O)(=O)Nc1cc(-c2ccncc2)cnc1Cl | IC50 [5]: > 10 µM; IC50 [6]: > 10 µM; IC50 [7]: > 10 µM; IC50 [8]: > 10 µM; IC50 [9]: > 10 µM; IC50 [10]: > 10 µM; IC50 [11]: > 10 µM; IC50 [12]: > 10 µM; IC50 [13]: > 10 µM; IC50 [14]: > 10 µM; IC50 [15]: > 10 µM; IC50 [16]: > 10 µM; IC50 [17]: > 10 µM; IC50 [18]: > 10 µM; IC50 [19]: > 10 µM; IC50 [20]: > 10 µM
6.31 | 3.98 | 2.51 | 0.398 | CS(=O)(=O)Nc1cc(-c2ccc3cn[nH]c3c2)cnc1Cl | –
> 31.6 | 15.8 | 15.8 | 3.98 | c1cc(-c2ccc3ccncc3c2)c2cc[nH]c2c1 | –
